Source: patent US20220409692A1, “Systems Chemico-Pharmacology Drugs and Methods of Use” (The Medical College of Wisconsin, priority 2019, published 2022)
Several values for one entry are separate records, joined by “and”; a condition that tells them apart may be missing. Equal entries are not always repeated. Where two headings read alike, the source gives them in different places. Peptide text beside a SMILES is read from it.

Assays:
neonatal rat pups = assay type: in vivo; conditions: for weight gain: P3-P10
Procedure: Data from lung sections and immunoblots from the samples were analyzed for statistical differences using GraphPad Prism version 8.4.3, for Windows (GraphPad Software, La Jolla, Calif.). Quantitative morphometric and cell count data are expressed as mean±SD scatter-plots adjacent to the representative images. Student t-test, or Mann-Whitney U test, was used for comparing two groups wherever appropriate. One-way analysis of variance with post-hoc Student-Newman-Keuls test was used when more than two groups of data were analyzed. Significant differences between groups were determined by either unpaired student's t-test or Mann-Whitney U test, depending on the distribution. Weight gain and survival data were analyzed using MedCalc Statistical Software version 15.2.1 (MedCalc Software bvba, Ostend, Belgium; http://www.medcalc.org). Kaplan-Meier survival curves were plotted using Kaplan-Meier tables constructed in GraphPad Prism. A p-value<0.05 was considered statistically significant.

RLMVEC = assay: KYC thiylation of endothelial cell proteins in RLMVEC cultures; assay type: cell-based, rat
Description: FIG. 29. Effects of Oxidative Stress on KYC Thiylation of RLMVEC Proteins. (A) Streptavidin affinity blot of KYC thiylated proteins from cell lysates prepared from RLMVEC cultures treated with B-KYC (baseline), B-KYC+MPO+H2O2 (MPO-dependent), and B-KYC+H2O2 (H2O2-dependent). (B) Immunoblot for Nrf2 in RLMVEC cultures treated as described in A. (C) Immunoblot for Keap1 in RLMVEC cultures treated as described in A. (D) Immunoblot for HMGB1 in RLMVEC cultures treated as described in A.(E) Immunoblot for β-Actin in RLMVEC cultures treated as described in A.(F) Bar chart showing relative levels of KYC thiylation, Nrf2, Keap1, and HMGB1 as a function of β-Actin (n=2, *=p<0.05, statistical analysis was preformed by ANOVA with appropriate post hoc tests).
FIG. 31. MPO Oxidation of KYC Increases KYC Thiylation of Extracellular HMGB1. […] This conclusion is based on the relative levels of KYC thiylated HMGB1 in panel A vs. KYC thiylated HMGB1 as a function of HMGB1 protein in conditioned media vs. RLMVEC cell lysates.
Rat lung microvascular endothelial cells (RLMVEC) from neonatal Sprague-Dawley rats (RN-6011) and rat endothelial growth medium (EGM, M1266SF) were from Cell Biologics (Chicago, Ill.). Amicon®Ultra-4 centrifugal concentrators with 3K cut-off (UFC800324) were from Merck Millipore Ltd (Carrigtwohill, Ireland). PierceTM Streptavidin (#88816), Protein G (#88848), Protein A Magnetic Beads (#88845), PierceTM ECL Western Blotting Substrate (#32106), and SuperSignalTM West Femto Maximum Sensitivity Substrate (#34095) were from Thermo Fisher Scientific (Waltham, MA). Rabbit antibodies for myeloperoxidase heavy chain (MPO, sc-33596) and TLR4 (sc-10741) were from Santa Cruz Biotechnology (Dallas, Texas). Rabbit antibody for Cl-Tyr (HP5002) was from Hycult Biotech (Plymouth Meeting, PA). The chicken antibody for HMGB1 (326052233) was from SHINO-TEST Corporation (Kanagawa, Japan). Rabbit antibody for RAGE (GTX23611) was from GeneTex (Irvine, CA). Mouse antibodies for PECAM-1/CD31 (ab24590), for 8-OH-dG (ab48508), and for rat endothelial cell antigen-1 (RECA-1, ab9774) were from Abcam (Cambridge, MA). Rabbit antibody for Cox1 (sc-7950) and Cox2 (sc-7951) were from Santa Cruz Biotechnology. Mouse (ab190377) and rabbit (ab77302b) antibodies for HMGB1, and streptavidin-HRP (ab7403) were from Abcam (Cambridge, Mass.). Rabbit antibody for acetylated-HMGB1 (OASG03545) was from Aviva System Biology (San Diego, Calif.). Rabbit antibodies for Nrf2 (sc-722) and TLR4 (sc-30002) were from Santa Cruz Biotechnology (Dallas, Tex.). Rabbit antibody against Keap1 (ABS97) and mouse antibody for β-actin (A2228) were from Millipore-Sigma (St. Louis, Mo.). Rabbit antibody for cysteine sulfonyl (ADI-OSA-820) was from Enzo Life Sciences (Farmingdale, N.Y.). Mouse antibody for glutathionylated proteins (D8) and all other chemicals were from Sigma-Aldrich (St. Louis, Mo.). All antibodies were certified either by the manufacturer or were used previously and certified by the authors, as was the case for the anti-HMGB1 antibody.
Effects of Oxidative Stress on KYC Thiylation on Endothelial Cell Proteins in RLMVEC Cultures: To determine the effects of oxidative stress on KYC thiylation, RLMVEC cultures were treated with B-KYC to follow KYC thiylation with streptavidin-affinity blotting as outlined in Methods. Three different levels of oxidative stress were used to determine the effects of oxidative stress on KYC thiylation of endothelial cell proteins: media alone (baseline); media containing MPO+H2O2 (MPO-dependent); and media containing H2O2 alone (H2O2-dependent) (FIG. 29A). KYC thiylation of RLMVEC proteins at baseline was low (FIG. 29A, first two lanes).

[1] = normoxic pups, KYC vs untreated
[2] = RLMVEC cultures, baseline vs MPO-dependent vs H2O2-dependent

With `CC(=O)N[C@@H](CCCCN)C(=O)N[C@@H](Cc1ccc(O)cc1)C(=O)N[C@@H](CS)C(N)=O` [KYC, N-acetyl lysyltyrosylcysteine amide] (Ac-Lys-Tyr-Cys-NH2) the “survival rate at P10” value (neonatal rat pups; hyperoxic (>90% O2) neonatal rat pups, KYC 5 mg/kg twice per day i.p., PBS group 82.8%) was 97.3% and ~98%, the “survival to P10 (survival analysis)” value (neonatal rat pups; hyperoxic pups, KYC vs PBS) was “higher probability of surviving to P10” and the weight gain (neonatal rat pups; hyperoxic pups, KYC vs PBS) was “time-dependent changes in weight gain were not significantly different”. The “survival to P10” value (neonatal rat pups; [1]) was “no significant differences in survival”, the weight gain (neonatal rat pups; [1]) was “gained more weight than untreated normoxic pups” and the “HMGB1 expression relative to β-actin” value (RLMVEC; [2]) was “increased in RLMVEC cultures subjected to H2O2-dependent KYC thiylation”. For the same molecule, the “Keap1 expression relative to β-actin” value (RLMVEC; [2]) was “followed a pattern similar to Nrf2”, the “Nrf2 expression relative to β-actin” value (RLMVEC; [2]) was “increased in RLMVEC cultures subjected to MPO-dependent KYC thiylation” and the “KYC thiylation of HMGB1 released from RLMVEC cultures” value (RLMVEC; conditioned media, no KYC vs KYC vs MPO+H2O2+KYC) was “greater in RLMVEC cultures incubated with MPO+H2O2+KYC”.
